Assay results: patent publication EP0501641A1, “L-2-oxothiazolidine-4-carboxylate and glutathion esters for the treatment of hepatic diseases” (CLINTEC NUTRITION COMPANY, priority 1991, dated 1992)

Test: Example 3: post liver transplant supplementation with glutathione methyl ester tablets, plasma glutathione monitored
Format: in vivo
Conditions: tablet t.i.d. containing 0.5 g, Normal Range 4.5
Excerpt: A person with primary biliary cirrhosis underwent liver transplant. In addition to routine post-surgery immuno-suppressive and nutritional therapies the patient received a glutathione-containing tablet t.i.d. containing 0.5 g glutathione methyl ester. The goal of the therapy was to normalize plasma and tissue glutathione status.
Plasma glutathione concentration was monitored periodically; values for Week 1 and Week 12 are given below: […]

COC(=O)CNC(=O)[C@H](CS)NC(=O)CC[C@H](N)C(=O)O [glutathione methyl ester]
Plasma Glutathione (Week 1, person after liver transplant): 1.2 µM | Plasma Glutathione (Week 12): 3.9 µM
